Data published in ChEMBL document CHEMBL3991601, “The target landscape of clinical kinase drugs” (Science, 2017).
Calls of active or inactive are those of the source. For most assays here, no stated cut-off is given here; in the data, actives have a measured Kd and inactives only a lower limit.

Experiments:
[1] = molecular target: Tyrosine-protein kinase Fer (Homo sapiens, UniProt P16591)
[2] = molecular target: T1, Serine/threonine-protein kinase 3 (Homo sapiens, UniProt Q13188)
T1 sequence (Q13188 whole entry): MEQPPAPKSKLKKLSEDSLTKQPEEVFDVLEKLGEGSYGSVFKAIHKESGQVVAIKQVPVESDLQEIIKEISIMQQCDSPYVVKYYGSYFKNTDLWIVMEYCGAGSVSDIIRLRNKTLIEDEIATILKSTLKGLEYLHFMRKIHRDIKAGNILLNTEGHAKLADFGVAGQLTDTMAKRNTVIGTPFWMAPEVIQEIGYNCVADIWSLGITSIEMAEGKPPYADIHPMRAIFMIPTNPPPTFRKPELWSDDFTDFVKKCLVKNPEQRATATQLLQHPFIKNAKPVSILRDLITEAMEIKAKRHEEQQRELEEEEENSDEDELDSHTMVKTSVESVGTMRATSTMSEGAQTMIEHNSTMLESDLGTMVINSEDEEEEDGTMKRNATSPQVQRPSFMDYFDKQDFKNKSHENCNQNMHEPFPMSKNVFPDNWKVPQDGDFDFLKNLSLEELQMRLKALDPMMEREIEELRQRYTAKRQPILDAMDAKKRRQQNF

[3] = molecular target: T2, Serine/threonine-protein kinase Chk1 (Homo sapiens, UniProt O14757)
T2 sequence (O14757 whole entry): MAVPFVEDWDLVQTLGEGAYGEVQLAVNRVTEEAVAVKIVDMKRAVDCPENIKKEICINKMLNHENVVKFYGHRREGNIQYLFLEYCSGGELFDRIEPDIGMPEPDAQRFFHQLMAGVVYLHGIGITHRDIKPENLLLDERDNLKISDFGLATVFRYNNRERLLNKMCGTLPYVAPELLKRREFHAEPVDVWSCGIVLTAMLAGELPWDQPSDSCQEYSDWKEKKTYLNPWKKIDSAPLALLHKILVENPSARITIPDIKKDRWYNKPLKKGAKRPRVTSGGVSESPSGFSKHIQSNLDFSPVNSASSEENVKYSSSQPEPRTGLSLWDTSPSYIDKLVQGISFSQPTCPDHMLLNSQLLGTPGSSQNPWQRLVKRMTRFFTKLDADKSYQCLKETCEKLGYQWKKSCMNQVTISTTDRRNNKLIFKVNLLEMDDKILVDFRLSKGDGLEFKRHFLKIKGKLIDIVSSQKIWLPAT

[4] = molecular target: Dual specificity testis-specific protein kinase 1 (Homo sapiens, UniProt Q15569)
Sequence of Dual specificity testis-specific protein kinase 1 (Q15569 whole entry): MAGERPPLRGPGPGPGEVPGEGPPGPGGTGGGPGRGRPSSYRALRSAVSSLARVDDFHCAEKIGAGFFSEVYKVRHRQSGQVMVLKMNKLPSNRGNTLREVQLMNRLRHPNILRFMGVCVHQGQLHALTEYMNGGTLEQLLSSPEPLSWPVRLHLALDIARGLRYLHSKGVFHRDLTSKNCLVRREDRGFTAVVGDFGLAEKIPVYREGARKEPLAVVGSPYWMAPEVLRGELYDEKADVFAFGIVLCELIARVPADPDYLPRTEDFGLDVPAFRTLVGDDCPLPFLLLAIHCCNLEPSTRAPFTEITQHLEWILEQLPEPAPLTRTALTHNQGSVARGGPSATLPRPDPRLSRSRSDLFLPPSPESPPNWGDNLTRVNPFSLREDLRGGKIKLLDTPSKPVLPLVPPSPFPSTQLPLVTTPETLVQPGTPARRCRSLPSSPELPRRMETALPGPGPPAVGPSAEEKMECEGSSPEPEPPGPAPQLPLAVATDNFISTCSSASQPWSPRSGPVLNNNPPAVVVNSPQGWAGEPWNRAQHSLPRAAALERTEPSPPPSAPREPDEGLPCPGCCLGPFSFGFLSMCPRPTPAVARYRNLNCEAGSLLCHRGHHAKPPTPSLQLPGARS

[5] = molecular target: Elongation factor Tu, mitochondrial (Homo sapiens, UniProt P49411)
[6] = molecular target: High affinity nerve growth factor receptor (Homo sapiens, UniProt P04629)
Sequence of High affinity nerve growth factor receptor (P04629 whole entry): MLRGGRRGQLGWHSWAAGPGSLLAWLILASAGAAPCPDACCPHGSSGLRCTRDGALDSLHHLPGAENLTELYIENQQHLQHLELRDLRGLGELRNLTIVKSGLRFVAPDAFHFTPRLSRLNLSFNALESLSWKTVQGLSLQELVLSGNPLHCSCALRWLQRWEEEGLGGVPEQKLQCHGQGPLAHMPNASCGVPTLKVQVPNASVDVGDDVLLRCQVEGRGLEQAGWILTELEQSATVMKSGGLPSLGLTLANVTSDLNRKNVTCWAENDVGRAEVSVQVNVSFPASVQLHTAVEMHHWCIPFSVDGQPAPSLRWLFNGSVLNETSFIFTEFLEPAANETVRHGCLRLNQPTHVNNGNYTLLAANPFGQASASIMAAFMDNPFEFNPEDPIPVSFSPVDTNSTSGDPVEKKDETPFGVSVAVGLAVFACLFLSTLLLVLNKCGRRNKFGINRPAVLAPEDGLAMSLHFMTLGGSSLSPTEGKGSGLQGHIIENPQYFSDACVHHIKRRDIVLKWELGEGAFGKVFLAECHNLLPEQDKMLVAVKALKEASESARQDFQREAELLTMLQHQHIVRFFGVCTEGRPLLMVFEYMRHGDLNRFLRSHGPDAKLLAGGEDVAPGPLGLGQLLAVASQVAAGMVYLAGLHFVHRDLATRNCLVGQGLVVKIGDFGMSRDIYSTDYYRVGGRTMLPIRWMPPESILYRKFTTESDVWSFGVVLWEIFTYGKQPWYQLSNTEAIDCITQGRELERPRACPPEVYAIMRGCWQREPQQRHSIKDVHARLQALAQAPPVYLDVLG

Scaffold protein ILK = molecular target: T3, Scaffold protein ILK (Homo sapiens, UniProt Q13418)
T3 sequence (Q13418 whole entry): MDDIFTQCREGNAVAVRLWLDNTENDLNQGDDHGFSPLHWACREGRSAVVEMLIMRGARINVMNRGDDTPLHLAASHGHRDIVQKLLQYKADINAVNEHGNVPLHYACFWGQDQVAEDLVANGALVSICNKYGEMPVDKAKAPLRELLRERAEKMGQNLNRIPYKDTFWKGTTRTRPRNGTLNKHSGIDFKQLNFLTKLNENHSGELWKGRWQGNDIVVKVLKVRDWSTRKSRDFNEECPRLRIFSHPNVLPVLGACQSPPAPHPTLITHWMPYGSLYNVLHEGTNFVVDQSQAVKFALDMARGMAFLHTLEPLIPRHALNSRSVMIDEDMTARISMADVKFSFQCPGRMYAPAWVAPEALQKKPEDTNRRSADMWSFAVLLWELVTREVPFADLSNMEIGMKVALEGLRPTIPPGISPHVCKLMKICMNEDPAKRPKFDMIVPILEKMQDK

[7] = molecular target: T4, Ribosyldihydronicotinamide dehydrogenase [quinone] (Homo sapiens, UniProt P16083)
T4 sequence (P16083 whole entry): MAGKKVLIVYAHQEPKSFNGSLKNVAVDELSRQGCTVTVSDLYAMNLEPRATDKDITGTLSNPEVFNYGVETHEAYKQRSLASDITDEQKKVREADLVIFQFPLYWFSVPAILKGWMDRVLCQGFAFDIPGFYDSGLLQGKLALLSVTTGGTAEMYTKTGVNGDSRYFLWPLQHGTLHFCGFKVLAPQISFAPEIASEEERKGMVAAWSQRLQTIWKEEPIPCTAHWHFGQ

[8] = molecular target: T5, Bone morphogenetic protein receptor type-2 (Homo sapiens, UniProt Q13873)
T5 sequence (Q13873 whole entry): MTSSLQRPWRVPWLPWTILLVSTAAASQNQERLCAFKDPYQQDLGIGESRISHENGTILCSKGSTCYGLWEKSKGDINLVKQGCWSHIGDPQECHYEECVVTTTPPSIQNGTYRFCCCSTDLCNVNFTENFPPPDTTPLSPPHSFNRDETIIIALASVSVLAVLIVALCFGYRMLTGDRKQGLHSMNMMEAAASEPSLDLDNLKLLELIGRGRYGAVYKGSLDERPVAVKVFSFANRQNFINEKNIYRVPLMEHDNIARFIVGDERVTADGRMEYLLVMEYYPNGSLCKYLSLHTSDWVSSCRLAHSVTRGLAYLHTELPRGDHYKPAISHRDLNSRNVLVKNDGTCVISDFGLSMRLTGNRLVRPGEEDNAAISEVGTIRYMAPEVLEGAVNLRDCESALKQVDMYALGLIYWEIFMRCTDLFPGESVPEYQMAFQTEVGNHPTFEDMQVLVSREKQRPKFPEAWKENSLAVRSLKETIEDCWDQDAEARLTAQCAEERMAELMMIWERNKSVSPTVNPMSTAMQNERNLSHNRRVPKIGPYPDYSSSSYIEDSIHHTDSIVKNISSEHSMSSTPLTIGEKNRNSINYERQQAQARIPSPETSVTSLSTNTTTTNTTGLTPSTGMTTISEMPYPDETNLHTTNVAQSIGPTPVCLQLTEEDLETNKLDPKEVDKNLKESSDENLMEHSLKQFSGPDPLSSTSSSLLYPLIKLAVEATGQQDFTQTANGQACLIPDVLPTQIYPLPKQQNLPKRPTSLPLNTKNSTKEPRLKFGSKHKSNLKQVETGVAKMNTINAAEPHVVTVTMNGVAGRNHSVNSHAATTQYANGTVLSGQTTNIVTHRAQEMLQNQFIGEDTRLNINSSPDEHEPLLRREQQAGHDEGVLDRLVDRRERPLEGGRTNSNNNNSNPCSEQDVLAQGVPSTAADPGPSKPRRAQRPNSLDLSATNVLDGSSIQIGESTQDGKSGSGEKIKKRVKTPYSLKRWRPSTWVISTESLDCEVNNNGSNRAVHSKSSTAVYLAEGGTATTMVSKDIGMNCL

Sequence of Tyrosine-protein kinase Fer (P16591 whole entry): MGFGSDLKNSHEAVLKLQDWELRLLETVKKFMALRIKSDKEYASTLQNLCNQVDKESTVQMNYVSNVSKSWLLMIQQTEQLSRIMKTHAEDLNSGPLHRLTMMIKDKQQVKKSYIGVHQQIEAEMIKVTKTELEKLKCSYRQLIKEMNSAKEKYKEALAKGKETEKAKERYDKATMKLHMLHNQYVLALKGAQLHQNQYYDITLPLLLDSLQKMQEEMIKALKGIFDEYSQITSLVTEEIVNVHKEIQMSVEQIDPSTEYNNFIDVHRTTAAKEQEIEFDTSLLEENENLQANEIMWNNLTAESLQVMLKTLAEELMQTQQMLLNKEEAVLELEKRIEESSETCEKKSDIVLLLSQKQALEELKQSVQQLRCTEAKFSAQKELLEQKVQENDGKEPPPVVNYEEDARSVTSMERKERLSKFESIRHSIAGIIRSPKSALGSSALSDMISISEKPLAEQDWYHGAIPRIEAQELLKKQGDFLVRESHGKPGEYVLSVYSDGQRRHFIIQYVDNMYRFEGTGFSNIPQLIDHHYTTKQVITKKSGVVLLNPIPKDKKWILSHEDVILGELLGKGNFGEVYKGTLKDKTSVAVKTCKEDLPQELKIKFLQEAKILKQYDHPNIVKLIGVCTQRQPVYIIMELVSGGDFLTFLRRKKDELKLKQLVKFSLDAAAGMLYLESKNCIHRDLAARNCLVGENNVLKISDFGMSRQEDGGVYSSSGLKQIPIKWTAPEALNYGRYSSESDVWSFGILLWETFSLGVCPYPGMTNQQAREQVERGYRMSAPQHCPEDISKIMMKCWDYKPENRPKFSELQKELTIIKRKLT

Kd [1] | Kd [2] | Kd [3] | Kd [4] | Kd [5] | Kd [6] | Kd (Scaffold protein ILK) | Kd [7] | Kd [8] | Structure (SMILES)
> 30 µM (inactive) | > 30 µM (inactive) | > 30 µM (inactive) | > 30 µM (inactive) | > 30 µM (inactive) | > 30 µM (inactive) | > 30 µM (inactive) | > 30 µM (inactive) | > 30 µM (inactive) | COc1ccc(S(=O)(=O)N(C(C)=O)c2ccccc2/C=C/c2cc[n+]([O-])cc2)cc1 [HMN-214]
> 30 µM (inactive) | > 30 µM (inactive) | > 30 µM (inactive) | > 30 µM (inactive) | > 30 µM (inactive) | > 30 µM (inactive) | > 30 µM (inactive) | > 30 µM (inactive) | > 30 µM (inactive) | NC1(c2ccc(-c3nc4ccn5c(=O)[nH]nc5c4cc3-c3ccccc3)cc2)CCC1 [MK-2206]
> 30 µM (inactive) | > 30 µM (inactive) | > 30 µM (inactive) | > 30 µM (inactive) | > 30 µM (inactive) | > 30 µM (inactive) | > 30 µM (inactive) | 52.6 µM (active) | > 30 µM (inactive) | CN(C[C@@H]1COCCO1)S(=O)(=O)Nc1ccc2ccc3ncc(-c4cnn(C)c4)cc3c(=O)c2c1 [MK-2461]
> 30 µM (inactive) | > 30 µM (inactive) | > 30 µM (inactive) | > 30 µM (inactive) | > 30 µM (inactive) | > 30 µM (inactive) | > 30 µM (inactive) | > 30 µM (inactive) | > 30 µM (inactive) | Cn1cc(-c2cnc3ccc4ccc(CS(=O)(=O)NCc5ccccn5)cc4c(=O)c3c2)cn1 [MK-8033]

Further lines, the compound ahead of its results:

Structure (SMILES) | Kd [1] | Kd [2] | Kd [3] | Kd [4] | Kd [5] | Kd [6] | Kd (Scaffold protein ILK) | Kd [7] | Kd [8]
Cc1cccc(-c2nn3c(c2-c2ccnc4ccc(C(N)=O)cc24)CCC3)n1 [GALUNISERTIB] | > 30 µM (inactive) | > 30 µM (inactive) | > 30 µM (inactive) | > 30 µM (inactive) | > 30 µM (inactive) | > 30 µM (inactive) | > 30 µM (inactive) | > 30 µM (inactive) | > 30 µM (inactive)
CNC(=O)c1cccc2cc(Oc3ccnc4cc(OCC5(N)CC5)c(OC)cc34)ccc12 [LUCITANIB] | > 30 µM (inactive) | > 30 µM (inactive) | > 30 µM (inactive) | > 30 µM (inactive) | > 30 µM (inactive) | > 30 µM (inactive) | > 30 µM (inactive) | > 30 µM (inactive) | > 30 µM (inactive)
CNC(=O)c1nn(C)c2c1C(C)(C)Cc1cnc(Nc3ccc(N4CCN(C)CC4)cc3)nc1-2 [MILCICLIB] | > 30 µM (inactive) | > 30 µM (inactive) | > 30 µM (inactive) | > 30 µM (inactive) | > 30 µM (inactive) | 2.96 µM (active) | > 30 µM (inactive) | > 30 µM (inactive) | > 30 µM (inactive)
FC(F)(F)c1ccc(/C=C/c2nc(COc3ccc(CCCCn4ccnn4)cc3)co2)cc1 [MUBRITINIB] | > 30 µM (inactive) | > 30 µM (inactive) | > 30 µM (inactive) | > 30 µM (inactive) | > 30 µM (inactive) | > 30 µM (inactive) | > 30 µM (inactive) | > 30 µM (inactive) | > 30 µM (inactive)
COc1ncc(-c2ccc3nccc(-c4ccnnc4)c3c2)cc1NS(=O)(=O)c1ccc(F)cc1F [OMIPALISIB] | > 30 µM (inactive) | > 30 µM (inactive) | > 30 µM (inactive) | > 30 µM (inactive) | > 30 µM (inactive) | > 30 µM (inactive) | > 30 µM (inactive) | > 30 µM (inactive) | > 30 µM (inactive)
CCOc1cc2ncc(C#N)c(Nc3ccc(F)c(Cl)c3)c2cc1NC(=O)/C=C/CN(C)C [PELITINIB] | > 30 µM (inactive) | > 30 µM (inactive) | > 30 µM (inactive) | > 30 µM (inactive) | > 30 µM (inactive) | > 30 µM (inactive) | > 30 µM (inactive) | > 30 µM (inactive) | > 30 µM (inactive)
CCCCCCCCCCCCCCCCCCOP(=O)([O-])OC1CC[N+](C)(C)CC1 [PERIFOSINE] | > 30 µM (inactive) | > 30 µM (inactive) | > 30 µM (inactive) | > 30 µM (inactive) | > 30 µM (inactive) | > 30 µM (inactive) | > 30 µM (inactive) | > 30 µM (inactive) | > 30 µM (inactive)
CO[C@H]1C[C@@H]2CC[C@@H](C)[C@@](O)(O2)C(=O)C(=O)N2CCCC[C@H]2C(=O)O[C@H]([C@H](C)C[C@@H]2CC[C@@H](OP(C)(C)=O)[C@H](OC)C2)CC(=O)[C@H](C)/C=C(\C)[C@@H](O)[C@@H](OC)C(=O)[C@H](C)C[C@H](C)/C=C/C=C/C=C/1C [RIDAFOROLIMUS] | > 30 µM (inactive) | > 30 µM (inactive) | > 30 µM (inactive) | > 30 µM (inactive) | > 30 µM (inactive) | > 30 µM (inactive) | > 30 µM (inactive) | > 30 µM (inactive) | > 30 µM (inactive)
N#CC1(c2ccc(NC(=O)c3cccnc3NCc3ccncc3)cc2)CCCC1 [RIVOCERANIB] | > 30 µM (inactive) | > 30 µM (inactive) | > 30 µM (inactive) | > 30 µM (inactive) | > 30 µM (inactive) | > 30 µM (inactive) | > 30 µM (inactive) | > 30 µM (inactive) | > 30 µM (inactive)
O=c1[nH]ccc2cc(OC3CCNCC3)ccc12 [SAR-407899 FREE BASE] | > 30 µM (inactive) | > 30 µM (inactive) | > 30 µM (inactive) | > 30 µM (inactive) | > 30 µM (inactive) | > 30 µM (inactive) | > 30 µM (inactive) | > 30 µM (inactive) | > 30 µM (inactive)
